Results reported in ChEMBL document CHEMBL1147899, “Raman, FT-IR, NMR spectroscopic data and antimicrobial activity of bis[micro2-(benzimidazol-2-yl)-2-ethanethiolato-N,S,S-chloro-palladium(II)] dimer, [(micro2-CH2CH2NHNCC6H4)PdCl]2.C2H5OH complex” (2007).

Key:
Type in all cases: functional
[1] = tested on: Rhodotorula mucilaginosa; assay: Antifungal activity against Rhodotorula rubra DSM 70403 at 10 ug after 72 hrs by disk diffusion method; details: DSM 70403, 72 h, read-out: IZ
[2] = tested on: Kluyveromyces marxianus; assay: Antifungal activity against Kluyveromyces fragilis NRRL 2415 at 10 ug after 72 hrs by disk diffusion method; details: NRRL 2415, 72 h, read-out: IZ
[3] = tested on: Hanseniaspora guilliermondii; assay: Antifungal activity against Hanseniaspora guilliermondii DSM 3432 at 10 ug after 72 hrs by disk diffusion method; details: DSM 3432, 72 h, read-out: IZ
[4] = tested on: Debaryomyces hansenii; assay: Antifungal activity against Debaryomyces hansenii DSM 70238 at 10 ug after 72 hrs by disk diffusion method; details: DSM 70238, 72 h, read-out: IZ
[5] = tested on: Candida albicans; assay: Antifungal activity against Candida albicans ATCC 10231 at 10 ug after 72 hrs by disk diffusion method; details: ATCC 10231, 72 h, read-out: IZ

In the case of `Clc1ccccc1C(c1ccccc1)(c1ccccc1)n1ccnc1` [CLOTRIMAZOLE], the zone of inhibition at 10 µg/disc [1] is reported as 16 mm, the zone of inhibition at 10 µg/disc [2] is reported as 18 mm and the zone of inhibition at 10 µg/disc [3] is reported as 22 mm. For the same compound, the zone of inhibition at 10 µg/disc [4] was 18 mm and the zone of inhibition at 10 µg/disc [5] was 15 mm.
